Columns and labels:
Format in all cases: in vivo
[1] = tested on: Spodoptera littoralis (Egyptian Cotton Leaf Worm); assay: Example B9: Spodoptera littoralis (Egyptian Cotton Leaf Worm), sprayed cotton leaf discs; settings: foliar, 72 h, application rate of 200 ppm, L1 larvae, 3 days after infestation, read-out: control in at least one of the three categories (mortality, anti-feedant or growth inhibition)
[2] = tested on: Diabrotica balteata (Corn Root Worm); assay: Example B1: Diabrotica balteata (Corn Root Worm), sprayed maize sprouts; settings: 96 h, application rate of 200 ppm, L2 larvae, 4 days after infestation, read-out: control in at least one of the two categories (mortality or growth inhibition)
Method: Example B1: Diabrotica balteata (Corn Root Worm)
Maize sprouts placed onto an agar layer in 24-well microtiter plates were treated with aqueous test solutions prepared from 10′000 ppm DMSO stock solutions by spraying. After drying, the plates were infested with L2 larvae (6 to 10 per well). The samples were assessed for mortality and growth inhibition in comparison to untreated samples 4 days after infestation.

[3] = tested on: Chilo suppressalis (Striped Rice Stemborer); assay: Example B4: Chilo suppressalis (Striped Rice Stemborer), artificial diet; settings: 144 h, application rate of 200 ppm, L2 larvae, 6 days after infestation, read-out: control in at least one of the three categories (mortality, anti-feedant or growth inhibition)
Method: Example B4: Chilo suppressalis (Striped Rice Stemborer)
24-well microtiter plates with artificial diet were treated with aqueous test solutions prepared from 10′000 ppm DMSO stock solutions by pipetting. After drying, the plates were infested with L2 larvae (6-8 per well). The samples were assessed for mortality, anti-feeding effect, and growth inhibition in comparison to untreated samples 6 days after infestation. Control of Chilo suppressalis by a test sample is given when at least one of the categories mortality, anti-feedant effect, and growth inhibition is higher than the untreated sample.

[4] = tested on: Plutella xylostella (Diamond Back Moth); assay: Example B5: Plutella xylostella (Diamond Back Moth), artificial diet, 24-well; settings: 192 h, application rate of 200 ppm, eggs, 8 days after infestation, read-out: control in at least one of the two categories (mortality or growth inhibition)
Method: Example B5: Plutella xylostella (Diamond Back Moth)
24-well microtiter plates with artificial diet were treated with aqueous test solutions prepared from 10′000 ppm DMSO stock solutions by pipetting. After drying, Plutella eggs were pipetted through a plastic stencil onto a gel blotting paper and the plate was closed with it. The samples were assessed for mortality and growth inhibition in comparison to untreated samples 8 days after infestation.

CC(NC(=O)c1cc(C(F)(F)F)nc(C2(C#N)CC2)c1)c1nccnc1-c1ccc(OC(F)F)cn1 (stereo not shown) [P1, 2-(1-cyanocyclopropyl)-N-[1-[3-[5-(difluoromethoxy)-2-pyridyl]pyrazin-2-yl]ethyl]-6-(trifluoromethyl)pyridine-4-carboxamide]
≥ 80%: percent control (mortality, anti-feedant effect or growth inhibition) at 200 ppm [1] | percent control (mortality or growth inhibition) at 200 ppm [2] | percent control (mortality, anti-feedant effect or growth inhibition) at 200 ppm [3] | percent control (mortality or growth inhibition) at 200 ppm [4]

CC(NC(=O)c1cc(C(F)(F)F)cc(C2(C#N)CC2)c1)c1nccnc1-c1ccc(OC(F)F)cn1 (stereo not shown) [P3, 3-(1-cyanocyclopropyl)-N-[1-[3-[5-(difluoromethoxy)-2-pyridyl]pyrazin-2-yl]ethyl]-5-(trifluoromethyl)benzamide]
≥ 80%: percent control (mortality, anti-feedant effect or growth inhibition) at 200 ppm [1] | percent control (mortality or growth inhibition) at 200 ppm [2] | percent control (mortality, anti-feedant effect or growth inhibition) at 200 ppm [3] | percent control (mortality or growth inhibition) at 200 ppm [4]

CC(NC(=O)c1cc(C(F)(F)F)cc(C(F)(F)C2CC2)c1)c1nccnc1-c1ncc(OCC(F)(F)F)cn1 (stereo not shown) [P4, 3-[cyclopropyl(difluoro)methyl]-N-[1-[3-[5-(2,2,2-trifluoroethoxy)pyrimidin-2-yl]pyrazin-2-yl]ethyl]-5-(trifluoromethyl)benzamide]
≥ 80%: percent control (mortality, anti-feedant effect or growth inhibition) at 200 ppm [1] | percent control (mortality or growth inhibition) at 200 ppm [2] | percent control (mortality, anti-feedant effect or growth inhibition) at 200 ppm [3] | percent control (mortality or growth inhibition) at 200 ppm [4]

CC(NC(=O)c1cc(C(F)(F)F)cc(C(F)(F)C2CC2)c1)c1nccnc1-c1ccc(OC(F)F)cn1 (stereo not shown) [P5, 3-[cyclopropyl(difluoro)methyl]-N-[1-[3-[5-(difluoromethoxy)-2-pyridyl]pyrazin-2-yl]ethyl]-5-(trifluoromethyl)benzamide]
≥ 80%: percent control (mortality, anti-feedant effect or growth inhibition) at 200 ppm [1] | percent control (mortality, anti-feedant effect or growth inhibition) at 200 ppm [3] | percent control (mortality or growth inhibition) at 200 ppm [4]

CC(NC(=O)c1cc(C2CC2)cc(C(F)(F)F)c1)c1nccnc1-c1ncc(OCC(F)(F)F)cn1 (stereo not shown) [P6, 3-cyclopropyl-N-[1-[3-[5-(2,2,2-trifluoroethoxy)pyrimidin-2-yl]pyrazin-2-yl]ethyl]-5-(trifluoromethyl)benzamide]
≥ 80%: percent control (mortality, anti-feedant effect or growth inhibition) at 200 ppm [1] | percent control (mortality or growth inhibition) at 200 ppm [2] | percent control (mortality, anti-feedant effect or growth inhibition) at 200 ppm [3] | percent control (mortality or growth inhibition) at 200 ppm [4]

CC(NC(=O)c1cc(C(F)(F)F)cc(C(C)(C)C#N)c1)c1nccnc1-c1ccc(OCC(F)(F)F)cn1 (stereo not shown) [P10, 3-(1-cyano-1-methyl-ethyl)-N-[1-[3-[5-(2,2,2-trifluoroethoxy)-2-pyridyl]pyrazin-2-yl]ethyl]-5-(trifluoromethyl)benzamide]
≥ 80%: percent control (mortality, anti-feedant effect or growth inhibition) at 200 ppm [1] | percent control (mortality, anti-feedant effect or growth inhibition) at 200 ppm [3] | percent control (mortality or growth inhibition) at 200 ppm [4]

CC(NC(=O)c1cc(C(F)(F)F)cc(S(=O)(=O)C(F)(F)F)c1)c1nccnc1-c1ccc(OC(F)F)cn1 (stereo not shown) [P11, N-[1-[3-[5-(difluoromethoxy)-2-pyridyl]pyrazin-2-yl]ethyl]-3-(trifluoromethyl)-5-(trifluoromethylsulfonyl)benzamide]
≥ 80%: percent control (mortality, anti-feedant effect or growth inhibition) at 200 ppm [1] | percent control (mortality, anti-feedant effect or growth inhibition) at 200 ppm [3] | percent control (mortality or growth inhibition) at 200 ppm [4]

CC(NC(=O)c1cc(C(F)(F)F)cc(S(=O)(=O)C(F)(F)F)c1)c1nccnc1-c1ncc(OCC(F)(F)F)cn1 (stereo not shown) [P12, N-[1-[3-[5-(2,2,2-trifluoroethoxy)pyrimidin-2-yl]pyrazin-2-yl]ethyl]-3-(trifluoromethyl)-5-(trifluoromethylsulfonyl)benzamide]
≥ 80%: percent control (mortality, anti-feedant effect or growth inhibition) at 200 ppm [1] | percent control (mortality, anti-feedant effect or growth inhibition) at 200 ppm [3] | percent control (mortality or growth inhibition) at 200 ppm [4]

CC(NC(=O)c1cc(C2CC2)cc(C(F)(F)F)c1)c1nccnc1-c1ccc(C#N)cn1 (stereo not shown) [P14, N-[1-[3-(5-cyano-2-pyridyl)pyra-zin-2-yl]ethyl]-3-cyclopropyl-5-(trifluoromethyl)benzamide]
≥ 80%: percent control (mortality, anti-feedant effect or growth inhibition) at 200 ppm [1] | percent control (mortality, anti-feedant effect or growth inhibition) at 200 ppm [3] | percent control (mortality or growth inhibition) at 200 ppm [4]

CC(NC(=O)c1cc(C(F)(F)F)cc(S(=O)(=O)C(F)(F)F)c1)c1nccnc1-c1ccc(C#N)cn1 (stereo not shown) [P15, N-[1-[3-(5-cyano-2-pyridyl)pyra-zin-2-yl]ethyl]-3-(trifluoromethyl)-5-(trifluoromethylsulfonyl)benza-mide]
≥ 80%: percent control (mortality, anti-feedant effect or growth inhibition) at 200 ppm [1] | percent control (mortality, anti-feedant effect or growth inhibition) at 200 ppm [3] | percent control (mortality or growth inhibition) at 200 ppm [4]

CC(NC(=O)c1cc(C2CC2)nc(C(F)(F)F)c1)c1nccnc1-c1ccc(C#N)cn1 (stereo not shown) [P17, N-[1-[3-(5-cyano-2-pyridyl)pyra-zin-2-yl]ethyl]-2-cyclopropyl-6-(trifluoromethyl)pyridine-4-carboxamide]
≥ 80%: percent control (mortality, anti-feedant effect or growth inhibition) at 200 ppm [1] | percent control (mortality, anti-feedant effect or growth inhibition) at 200 ppm [3] | percent control (mortality or growth inhibition) at 200 ppm [4]

CC(NC(=O)c1cc(C(F)(F)F)cc(C(F)(F)C2CC2)c1)c1nccnc1-c1ccc(C#N)cn1 (stereo not shown) [P18, N-[1-[3-(5-cyano-2-pyridyl)pyra-zin-2-yl]ethyl]-3-[cyclopropyl(difluoro)methyl]-5-(trifluoromethyl)benzamide]
≥ 80%: percent control (mortality, anti-feedant effect or growth inhibition) at 200 ppm [1] | percent control (mortality, anti-feedant effect or growth inhibition) at 200 ppm [3] | percent control (mortality or growth inhibition) at 200 ppm [4]

CC(NC(=O)c1cc(C(F)(F)F)cc(C(F)(F)C2CC2)c1)c1nccnc1-c1ccc(OCC(F)F)cn1 (stereo not shown) [P30, 3-[cyclopropyl(difluoro)methyl]-N-[1-[3-[5-(2,2-difluoroethoxy)-2-pyridyl]pyrazin-2-yl]ethyl]-5-(trifluoromethyl)benzamide]
≥ 80%: percent control (mortality or growth inhibition) at 200 ppm [4]

CC(NC(=O)c1cc(C2CC2)nc(C(F)(F)F)c1)c1nccnc1-c1ncc(OCC(F)F)cn1 (stereo not shown) [P35, 2-cyclopropyl-N-[1-[3-[5-(2,2-difluoroethoxy)pyrimidin-2-yl]pyrazin-2-yl]ethyl]-6-(trifluoromethyl)pyridine-4-carboxamide]
≥ 80%: percent control (mortality, anti-feedant effect or growth inhibition) at 200 ppm [1] | percent control (mortality, anti-feedant effect or growth inhibition) at 200 ppm [3] | percent control (mortality or growth inhibition) at 200 ppm [4]

CC(NC(=O)c1cc(OC(F)(F)F)cc(C2(C#N)CC2)c1)c1nccnc1-c1ccc(C#N)cn1 (stereo not shown) [P45, 3-(1-cyanocyclopropyl)-N-[1-[3-(5-cyano-2-pyridyl)pyrazin-2-yl]ethyl]-5-(trifluorometh-oxy)benzamide]
≥ 80%: percent control (mortality, anti-feedant effect or growth inhibition) at 200 ppm [3] | percent control (mortality or growth inhibition) at 200 ppm [4]
